Data from US8314130B2, “Compounds inclunding substituted pyridines for inflammation and immune-related uses” (Synta Pharmaceuticals Corp., priority 2008, dated 2012).
Read-outs that look alike come from different tables or passages of the source.

Assays:
[1] = system: IL-2; assay: Inhibition of IL-2 production in PHA-activated Jurkat cells (1% FBS), ELISA; assay type: cell-based; conditions: Homo sapiens, read-out: IL-2 current inhibition Jurkat/PHA/1% FBS IC50
Description: Jurkat cells were placed in a 96 well plate (0.5 million cells per well in 1% FBS medium), and then a test compound of this invention was added at different concentrations. After 10 minutes, the cells were activated with PHA (final concentration 2.5 μg/mL) and incubated for 20 hours at 37° C. under 5% CO2. The final volume was 200 Following incubation, the cells were centrifuged, and the supernatants collected and stored at −70° C. prior to assaying for IL-2 production. A commercial ELISA kit (IL-2 Eli-pair, Diaclone Research, Besancon, France) was used to detect production of IL-2, from which dose response curves were obtained. The IC50 value was calculated as the concentration at which 50% of maximum IL-2 production after stimulation was inhibited versus a non-stimulation control.

[2] = target: T1, CRACM1/STIM1 (Homo sapiens, UniProt Q96D31); assay: ICRAC current inhibition in CRACM1/STIM1-CHOK1 cells (patch clamp); assay type: cell-based; conditions: 500 nM, activity class
T1 construct: Full length human Stim1, CracM1, CracM2 and CracM3 cDNA
Description: Manual patch clamp experiments are conducted in the tight-seal whole-cell configuration at room temperature (21-25° C.). Patch pipettes are fashioned from borosilicate glass capillary tubes and have resistances between 2-4 MO after filling with standard intracellular solution. High resolution current recordings are acquired with a computer-based patch clamp amplifier system (EPC-10, HEKA, Lambrecht, Germany). All voltages are corrected for a liquid junction potential of 10 mV between external and internal solutions with glutamate as the intracellular anion. Currents are filtered at 2.9 kHz and digitized at 10 μs intervals. Capacitive currents and series resistance are determined and corrected before each voltage ramp using the automatic capacitance compensation of the EPC-10.
Automated patch clamp experiments are conducted with the QPatch 16 (Sophion Bioscience, Ballerup, Denmark) at room temperature (21-25° C.). Immediately following the establishment of giga-seal whole-cell configuration, the cells membrane potential is clamped at 0 mV. Voltage ramps of 50 ms duration spanning the voltage range of −100 to +100 mV are then stimulated at a rate of 0.33 Hz. Currents are filtered at 2.9 kHz and digitized at 200 μs intervals. Capacitive currents and series resistance are determined and corrected before each voltage ramp using the automatic capacitance compensation.
In general, a whole cell patch clamp method is used to examine the effects of a compound of the invention on a channel(s) that mediates ICRAC. In such experiments, a baseline ICRAC measurement is established within the first 70 voltage ramps, or 140 seconds, for a patched cell. Then the cells are perfused with the compound to be tested and the effect of the compound on ICRAC is measured for at least an additional 440 to 500 seconds. A compound that modulates ICRAC (e.g., inhibits) is a compound that is useful in the invention for modulating CRAC ion channel activity.
ICRAC currents are measured using 50 msec voltage ramps between −100 mV to +100 mV. The voltage ramps are stimulated every 2 seconds for the first 70 sweeps, then every 5 seconds for the remainder of the experiment. The membrane potential is held at 0 mV between the test ramps. In a typical experiment, the peak inward currents will develop within 50-100 seconds. Once the ICRAC current is stabilized, the cells are perfused with a test compound in the extracellular solution for at least an additional 500 seconds.
Off-line analysis with the Heka PatchMaster software is used to separate the ICRAC membrane current from the cells basal background currents. In a typical recording, InsP3 stimulated ICRAC currents begin to develop in 6 to 12 seconds after whole cell is established. Therefore, the first 1-4 voltage ramps represent the basal membrane currents in the absence of ICRAC and the average value is subtracted from all subsequent traces. The current value at −80 mV for each ramp trace is then measured and plotted against time. The resulting current versus time data is exported into a Microsoft Excel spreadsheet. The % ICRAC inhibition in each cell is calculated by comparing the amount of current just prior to the compound perfusion to the amount of current after the cells has been perfused with the compound for 440-500 seconds. The IC50 value and Hill coefficient for each compound is estimated by fitting all the individual data points to a single-site Hill equation.
TREx™-CHO cells were transfected with human Stim1 (recombinant DNA in pcDNA4/TO/myc-His™ A with a myc epitope tag in the N-terminal) and either CracM1, CracM2 or CracM3 (recombinant DNA in pcDNA 3.1 with a HA epitope tag in the N-terminal). Stably expressing cells were selected by growing the transfected cells in antibiotics for two to three weeks. Individual cell clones were isolated via serial dilution. […]

T1 sequence (Q96D31 whole entry): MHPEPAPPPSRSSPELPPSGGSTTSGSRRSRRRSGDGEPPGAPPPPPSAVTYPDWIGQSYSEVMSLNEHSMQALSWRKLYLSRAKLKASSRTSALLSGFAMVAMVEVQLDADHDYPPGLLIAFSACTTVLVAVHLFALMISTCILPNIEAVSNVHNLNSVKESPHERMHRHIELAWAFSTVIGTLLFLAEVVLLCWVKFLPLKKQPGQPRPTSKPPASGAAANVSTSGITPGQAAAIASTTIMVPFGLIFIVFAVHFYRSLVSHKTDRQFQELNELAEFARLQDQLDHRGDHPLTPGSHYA

SMILES | IC50 ([1]; activity class) | inhibition at 0.5 µM [2] | IC50 ([1]; numeric values, unit inferred)
Cc1cc(C(=O)c2ccccc2)sc1-c1ccc(NC(=O)c2c(F)cccc2F)cc1 [A] | < 50 nM | 70 to 100% | –
Cc1cc(C(=O)c2cccnc2)sc1-c1ccc(NC(=O)c2c(F)cccc2F)nc1 [B] | < 50 nM | 50 to 70% | –
CC(C)c1sc(-c2cccnc2)nc1-c1ccc(NC(=O)c2c(F)cccc2F)nc1 [C] | < 50 nM | < 50% | –
Cc1sc(-c2ccccn2)nc1-c1ccc(NC(=O)c2c(F)cccc2F)nc1 [Compound 1, 2,6-Difluoro-N-(5-(5-methyl-2-(pyridin-2-yl)thiazol-4-yl)pyridin-2-yl)benzamide] | < 50 nM | 50 to 70% | –
Cc1sc(-c2ccccn2)nc1-c1ccc(NC(=O)c2c(F)cccc2F)cc1 [Compound 2, 2,6-Difluoro-N-(4-(5-methyl-2-(pyridin-2-yl)thiazol-4-yl)phenyl)benzamide] | < 50 nM | 70 to 100% | –
Cc1sc(-c2cccnc2)nc1-c1ccc(NC(=O)c2c(F)cccc2F)nc1 [Compound 3, 2,6-Difluoro-N-(5-(5-methyl-2-(pyridin-3-yl)thiazol-4-yl)pyridin-2-yl)benzamide] | < 50 nM | 70 to 100% | –
Cc1sc(-c2cnn(C)c2)nc1-c1ccc(NC(=O)c2c(F)cccc2F)nc1 [Compound 4, 2,6-Difluoro-N-(5-(5-methyl-2-(1-methyl-1H-pyrazol-4-yl)thiazol-4-yl)pyridin-2-yl)benzamide] | < 50 nM | < 50% | –
CC(C)c1sc(-c2cnn(C)c2)nc1-c1ccc(NC(=O)c2ccc(F)cc2F)nc1 [Compound 5, 2,4-Difluoro-N-(5-(5-isopropyl-2-(1-methyl-1H-pyrazol-4-yl)thiazol-4-yl)pyridin-2-yl)benzamide] | > 100 nM | – | –
Cc1cc(C(=O)c2cccnc2)sc1-c1ccc(NC(=O)c2c(F)cccc2F)cc1 [Compound 6, 2,6-difluoro-N-(4-(3-methyl-5-nicotinoylthiophen-2-yl)phenyl)benzamide] | < 50 nM | 70 to 100% | –
Cc1cc(Cc2cccnc2)sc1-c1ccc(NC(=O)c2c(F)cccc2F)cc1 [Compound 7, 2,6-difluoro-N-(4-(3-methyl-5-(pyridin-3-ylmethyl)thiophen-2-yl)phenyl)benzamide] | < 50 nM | 70 to 100% | –
Cc1cc(CCc2cccnc2)sc1-c1ccc(NC(=O)c2c(F)cccc2F)cc1 [Compound 8, 2,6-difluoro-N-(4-(3-methyl-5-(2-(pyridin-3-yl)ethyl)thiophen-2-yl)phenyl)benzamide] | < 50 nM | 70 to 100% | –
CC(C)(O)c1sc(-c2cccnc2)cc1-c1ccc(NC(=O)c2c(F)cccc2F)nc1 [Compound 9, 2,6-difluoro-N-(5-(2-(2-hydroxypropan-2-yl)-5-(pyridin-3-yl)thiophen-3-yl)pyridin-2-yl)benzamide] | > 100 nM | – | –
C=C(C)c1sc(-c2cccnc2)cc1-c1ccc(NC(=O)c2c(F)cccc2F)nc1 [Compound 10, 2,6-difluoro-N-(5-(2-(prop-1-en-2-yl)-5-(pyridin-3-yl)thiophen-3-yl)pyridin-2-yl)benzamide] | < 50 nM | 50 to 70% | –
CC(C)(O)c1sc(-c2cccnc2)cc1-c1cnc(NC(=O)c2c(F)cccc2F)cn1 [Compound 12, 2,6-difluoro-N-(5-(2-(2-hydroxypropan-2-yl)-5-(pyridin-3-yl)thiophen-3-yl)pyrazin-2-yl)benzamide] | > 100 nM | – | –
C=C(C)c1sc(-c2cccnc2)cc1-c1cnc(NC(=O)c2c(F)cccc2F)cn1 [Compound 13, 2,6-difluoro-N-(5-(2-(prop-1-en-2-yl)-5-(pyridin-3-yl)thiophen-3-yl)pyrazin-2-yl)benzamide] | 50 to 100 nM | – | –
O=C(Nc1ccc(-c2cc(-c3cccnc3)sc2-c2cccnc2)cc1)c1c(F)cccc1F [Compound 16, N-(4-(2,5-di(pyridin-3-yl)thiophen-3-yl)phenyl)-2,6-difluorobenzamide] | < 50 nM | – | –
Cc1sc(-c2cccnc2)cc1-c1cnc(NC(=O)c2c(F)cccc2F)cn1 [Compound 17, 2,6-difluoro-N-(5-(2-methyl-5-(pyridin-3-yl)thiophen-3-yl)pyrazin-2-yl)benzamide] | < 50 nM | – | –
CCc1sc(-c2cccnc2)nc1-c1ccc(NC(=O)c2cccc(F)c2C)nc1 [Compound A2] | – | – | 10 nM
CCc1sc(-c2ccc(N)nc2)nc1-c1ccc(NC(=O)c2cccc(F)c2C)nc1 [Compound A3] | – | – | 16 nM
Cc1sc(-c2ccc(N)nc2)nc1-c1cnc(NC(=O)c2c(F)cccc2F)cn1 [Compound A4] | – | – | 17 nM
Cc1cccc(F)c1C(=O)Nc1ccc(-c2nc(-c3cnn(C)c3)sc2C)cn1 [Compound A5] | – | – | 77 nM

SMILES | IC50 ([1]; activity class) | inhibition at 0.5 µM [2] | IC50 ([1]; numeric values, unit inferred)
Cc1cc(-c2nc(-c3ccc(NC(=O)c4cccc(F)c4C)nc3)c(C)s2)no1 [Compound A6] | – | – | 21 nM
CCc1sc(-c2ccc(C)nc2)nc1-c1ccc(NC(=O)c2cccc(F)c2C)nc1 [Compound A7] | – | – | 21 nM
Cc1cccc(F)c1C(=O)Nc1ccc(-c2nc(-c3ccc(N)nc3)sc2C)cn1 [Compound A8] | – | – | 26 nM
CCc1sc(-c2cccnc2C)nc1-c1ccc(NC(=O)c2cccc(F)c2C)nc1 [Compound A9] | – | – | 28 nM
CCc1sc(-c2cnn(C)c2)nc1-c1cnc(NC(=O)c2c(F)cccc2F)cn1 [Compound A10] | – | – | 40 nM
Cc1sc(-c2cnccn2)nc1-c1ccc(NC(=O)c2cccc(F)c2C)nc1 [Compound A11] | – | – | 43 nM
CCc1sc(-c2cnn(C)c2)nc1-c1ccc(C(=O)Nc2c(C)cccc2F)cc1 [Compound A12] | – | – | 44 nM
CC(C)c1sc(-c2cccnc2)cc1-c1cnc(NC(=O)c2c(F)cccc2F)cn1 [Compound T] | < 50 nM | – | –
CC(C)c1sc(-c2cccnc2)nc1-c1ccc(NC(=O)c2ccc(F)cc2F)nc1 [D] | 50 to 100 nM | – | –
Cc1sc(CCc2cccnc2)nc1-c1ccc(NC(=O)c2c(F)cccc2F)nc1 [E] | 50 to 100 nM | – | –
Cc1sc(-c2cnco2)nc1-c1ccc(NC(=O)c2c(F)cccc2F)cc1 [G] | < 50 nM | – | –
Cc1sc(-c2ncc(-c3cccnc3)s2)cc1-c1ccc(NC(=O)c2c(F)cccc2F)nc1 [I] | > 100 nM | – | –
Cc1sc(-c2ncco2)cc1-c1ccc(NC(=O)c2c(F)cccc2F)cc1 [J] | < 50 nM | – | –
Cc1sc(-c2cncn2CCN(C)C)cc1-c1ccc(NC(=O)c2c(F)cccc2F)cc1 [K] | > 100 nM | – | –
CC(=O)c1cc(-c2ccc(NC(=O)c3c(F)cccc3F)cc2)c(C)s1 [L] | > 100 nM | – | –
COC(=O)c1cc(NC(=O)c2c(F)cccc2F)ccc1-c1cc(-c2cccnc2)sc1CO [M] | > 100 nM | – | –
CC(C)(O)c1sc(-c2cccnc2)cc1-c1ccc(NC(=O)c2c(F)cccc2F)cc1 [N] | < 50 nM | – | –
Cc1sc(C(=O)c2ccncc2)cc1-c1ccc(NC(=O)c2c(F)cccc2F)cc1 [P] | < 50 nM | – | –
Cc1sc(C#Cc2cccnc2)cc1-c1ccc(NC(=O)c2c(F)cccc2F)cc1 [Q] | < 50 nM | – | –
Cc1sc(CCc2cccnc2)cc1-c1ccc(NC(=O)c2c(F)cccc2F)cc1 [R] | < 50 nM | – | –
Cc1sc(-c2ncco2)cc1-c1cnc(NC(=O)c2c(F)cccc2F)cn1 [S] | < 50 nM | – | –
